Tests used:
Format in all cases: in vivo
[1] = test system: Beet Armyworm (Spodoptera exigua, LAPHEG); assay: Bioassays on Beet Armyworm (BAW), 128-well diet tray assay; details: Spodoptera exigua; Beet Armyworm; rating class; read-out: BAW
Method in brief: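 Percent larval mortality, averaged across eight wells, scored after five to seven days at 25° C. under 14:10 light-dark. Each well held one to five second instars feeding on diet dosed at 50 μg/cm^2 with compound from 90:10 acetone-water, solvent dried off.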

[2] = test system: Cabbage Looper (Trichoplusia ni, TRIPNI); assay: Bioassays on Cabbage Looper (CL), 128-well diet tray assay; details: Trichoplusia ni; Cabbage Looper; rating class; read-out: CL
Method in brief: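 Test molecule was dissolved in 90:10 acetone-water, applied to artificial diet at 50 μg/cm^2 and allowed to dry. Second-instar larvae were then added, one to five per well, and trays held at 25° C for five to seven days before mortality was scored and averaged.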

[3] = test system: Green Peach Aphid (Myzus persicae, MYZUPE); assay: Bioassays on Green Peach Aphid (GPA), foliar spray on cabbage seedlings; details: 72 h, Green Peach Aphid, rating class, read-out: GPA
Method in brief: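 Percent control (Abbott-corrected versus solvent-sprayed plants) comes from live-aphid counts three days after treatment at about 25° C. Test solution at 200 ppm was sprayed to runoff onto both leaf surfaces of cabbage seedlings infested a day earlier with 20-50 aphids; four replicate pots.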

[4] = test system: Yellow Fever Mosquito (Aedes aegypti, AEDSAE); details: Yellow Fever Mosquito; rating class
Method in brief: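 Larvae ~1 day old, in liver powder/water; compound from 4000 ppm DMSO stock diluted with water/acetone (90:10); 6 reps; lidded, RT, 3 d; mortality scored per well, rated.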

## CC(=O)Nc1c(F)ccc(NC(=O)c2cc(NC(=O)[C@H]3[C@H](c4ccc(F)c(Cl)c4)C3(Cl)Cl)ccc2Cl)c1F [F1694, N-(3-Acetamido-2,4-difluorophenyl)-2-chloro-5-((1R,3R)-2,2-dichloro-3-(3-chloro-4-fluorophenyl)cyclopropane-1-carboxamido)benzamide]
[1]
  pest or weed control at 50 µg/cm2: 50 to 100%
[2]
  pest or weed control at 50 µg/cm2: 50 to 100%
[3]
  pest or weed control at 200 µg/mL: 80 to 100%
[4]
  YFM: A (80–100)

## O=C(Nc1ccc(F)c(NC(=O)C(F)(F)F)c1F)c1cc(NC(=O)[C@H]2[C@H](c3ccc(F)c(Cl)c3)C2(Cl)Cl)ccc1Cl [F1695, 2-Chloro-5-((1R,3R)-2,2-dichloro-3-(3-chloro-4-fluorophenyl)cyclopropane-1-carboxamido)-N-(2,4-difluoro-3-(2,2,2-trifluoroacetamido)phenyl)benzamide]
[1]
  pest or weed control at 50 µg/cm2: 50 to 100%
[2]
  pest or weed control at 50 µg/cm2: 50 to 100%
[3]
  pest or weed control at 200 µg/mL: 80 to 100%
[4]
  YFM: B (More than 0 – Less than 80)

## O=C(Nc1ccc(F)c(NC(=O)C(F)(F)C(F)(F)F)c1F)c1cc(NC(=O)[C@H]2[C@H](c3ccc(F)c(Cl)c3)C2(Cl)Cl)ccc1Cl [F1696, 2-Chloro-5-((1R,3R)-2,2-dichloro-3-(3-chloro-4-fluorophenyl)cyclopropane-1-carboxamido)-N-(2,4-difluoro-3-(2,2,3,3,3-pentafluoropropanamido)phenyl)benzamide]
[1]
  pest or weed control at 50 µg/cm2: 50 to 100%
[2]
  pest or weed control at 50 µg/cm2: 50 to 100%
[3]
  pest or weed control at 200 µg/mL: 80 to 100%
[4]
  YFM: A (80–100)

## O=C(Nc1ccc(F)c(NC(=O)C(F)(F)Cl)c1F)c1cc(NC(=O)[C@H]2[C@H](c3ccc(F)c(Cl)c3)C2(Cl)Cl)ccc1Cl [F1697, 2-Chloro-N-(3-(2-chloro-2,2-difluoroacetamido)-2,4-difluorophenyl)-5-((1R,3R)-2,2-dichloro-3-(3-chloro-4-fluorophenyl)cyclopropane-1-carboxamido)benzamide]
[1]
  pest or weed control at 50 µg/cm2: 50 to 100%
[2]
  pest or weed control at 50 µg/cm2: 50 to 100%
[3]
  pest or weed control at 200 µg/mL: 80 to 100%
[4]
  YFM: A (80–100)

## O=C(Nc1ccc(F)c(NC(=O)C2CCCO2)c1F)c1cc(NC(=O)[C@H]2[C@H](c3ccc(F)c(Cl)c3)C2(Cl)Cl)ccc1Cl (stereo partly drawn) [F1699, N-(3-(2-Chloro-5-((1R,3R)-2,2-dichloro-3-(3-chloro-4-fluorophenyl)cyclopropane-1-carboxamido)benzamido)-2,6-difluorophenyl)tetrahydrofuran-2-carboxamide]
[1]
  pest or weed control at 50 µg/cm2: 50 to 100%
[2]
  pest or weed control at 50 µg/cm2: 50 to 100%
[3]
  pest or weed control at 200 µg/mL: 0 to 80%
[4]
  YFM: B (More than 0 – Less than 80)

## O=C(CC(F)(F)F)Nc1c(F)ccc(NC(=O)c2cc(NC(=O)[C@H]3[C@H](c4ccc(F)c(Cl)c4)C3(Cl)Cl)ccc2Cl)c1F [F1701, 2-Chloro-5-((1R,3R)-2,2-dichloro-3-(3-chloro-4-fluorophenyl)cyclopropane-1-carboxamido)-N-(2,4-difluoro-3-(3,3,3-trifluoropropanamido)phenyl)benzamide]
[1]
  pest or weed control at 50 µg/cm2: 50 to 100%
[2]
  pest or weed control at 50 µg/cm2: 50 to 100%
[3]
  pest or weed control at 200 µg/mL: 80 to 100%
[4]
  YFM: B (More than 0 – Less than 80)

## O=C(CC1CC1)Nc1c(F)ccc(NC(=O)c2cc(NC(=O)[C@H]3[C@H](c4ccc(F)c(Cl)c4)C3(Cl)Cl)ccc2Cl)c1F [F1702, 2-Chloro-N-(3-(2-cyclopropylacetamido)-2,4-difluorophenyl)-5-((1R,3R)-2,2-dichloro-3-(3-chloro-4-fluorophenyl)cyclopropane-1-carboxamido)benzamide]
[1]
  pest or weed control at 50 µg/cm2: 50 to 100%
[2]
  pest or weed control at 50 µg/cm2: 50 to 100%
[3]
  pest or weed control at 200 µg/mL: 80 to 100%
[4]
  YFM: A (80–100)

## O=C(Nc1ccc(F)c(NC(=O)C(F)(F)C(F)F)c1F)c1cc(NC(=O)[C@H]2[C@H](c3ccc(F)c(Cl)c3)C2(Cl)Cl)ccc1Cl [F1703, 2-Chloro-5-((1R,3R)-2,2-dichloro-3-(3-chloro-4-fluorophenyl)cyclopropane-1-carboxamido)-N-(2,4-difluoro-3-(2,2,3,3-tetrafluoropropanamido)phenyl)benzamide]
[1]
  pest or weed control at 50 µg/cm2: 50 to 100%
[2]
  pest or weed control at 50 µg/cm2: 50 to 100%
[3]
  pest or weed control at 200 µg/mL: 80 to 100%
[4]
  YFM: A (80–100)

## CCC(=O)Nc1c(F)ccc(NC(=O)c2cc(NC(=O)[C@H]3[C@H](c4ccc(F)c(Cl)c4)C3(Cl)Cl)ccc2Cl)c1F [F1704, 2-Chloro-5-((1R,3R)-2,2-dichloro-3-(3-chloro-4-fluorophenyl)cyclopropane-1-carboxamido)-N-(2,4-difluoro-3-propionamidophenyl)benzamide]
[1]
  pest or weed control at 50 µg/cm2: 50 to 100%
[2]
  pest or weed control at 50 µg/cm2: 50 to 100%
[3]
  pest or weed control at 200 µg/mL: 80 to 100%
[4]
  YFM: A (80–100)

## CCCC(=O)Nc1c(F)ccc(NC(=O)c2cc(NC(=O)[C@H]3[C@H](c4ccc(F)c(Cl)c4)C3(Cl)Cl)ccc2Cl)c1F [F1705, N-(3-Butyramido-2,4-difluorophenyl)-2-chloro-5-((1R,3R)-2,2-dichloro-3-(3-chloro-4-fluorophenyl)cyclopropane-1-carboxamido)benzamide]
[1]
  pest or weed control at 50 µg/cm2: 50 to 100%
[2]
  pest or weed control at 50 µg/cm2: 50 to 100%
[3]
  pest or weed control at 200 µg/mL: 80 to 100%
[4]
  YFM: B (More than 0 – Less than 80)

## CC(=O)Nc1c(F)ccc(NC(=O)c2cc(NC(=O)[C@H]3[C@H](c4cc(F)cc(C(F)(F)F)c4)C3(Cl)Cl)ccc2Cl)c1F [F1708, N-(3-Acetamido-2,4-difluorophenyl)-2-chloro-5-((1R,3R)-2,2-dichloro-3-(3-fluoro-5-(trifluoromethyl)phenyl)cyclopropane-1-carboxamido)benzamide]
[1]
  pest or weed control at 50 µg/cm2: 50 to 100%
[2]
  pest or weed control at 50 µg/cm2: 50 to 100%
[3]
  pest or weed control at 200 µg/mL: 80 to 100%
[4]
  YFM: A (80–100)

## O=C(CC(F)(F)F)Nc1c(F)ccc(NC(=O)c2cc(NC(=O)[C@H]3[C@H](c4cc(F)cc(C(F)(F)F)c4)C3(Cl)Cl)ccc2Cl)c1F [F1710, 2-Chloro-5-((1R,3R)-2,2-dichloro-3-(3-fluoro-5-(trifluoromethyl)phenyl)cyclopropane-1-carboxamido)-N-(2,4-difluoro-3-(3,3,3-trifluoropropanamido)phenyl)benzamide]
[1]
  pest or weed control at 50 µg/cm2: 50 to 100%
[2]
  pest or weed control at 50 µg/cm2: 50 to 100%
[3]
  pest or weed control at 200 µg/mL: 0 to 80%
[4]
  YFM: A (80–100)

## O=C(Nc1ccc(F)c(NC(=O)C(F)F)c1F)c1cc(NC(=O)[C@H]2[C@H](c3cc(F)cc(C(F)(F)F)c3)C2(Cl)Cl)ccc1Cl [F1711, 2-Chloro-5-((1R,3R)-2,2-dichloro-3-(3-fluoro-5-(trifluoromethyl)phenyl)cyclopropane-1-carboxamido)-N-(3-(2,2-difluoroacetamido)-2,4-difluorophenyl)benzamide]
[1]
  pest or weed control at 50 µg/cm2: 50 to 100%
[2]
  pest or weed control at 50 µg/cm2: 50 to 100%
[3]
  pest or weed control at 200 µg/mL: 80 to 100%
[4]
  YFM: A (80–100)

## CC(C)(C)OC(=O)Nc1cc(NC(=O)c2cc(NC(=O)[C@H]3[C@H](c4ccc(F)c(C(F)(F)F)c4)C3(Cl)Cl)ccc2Cl)c(F)c(F)c1F [F1736, tert-Butyl (5-(2-chloro-5-((1R,3R)-2,2-dichloro-3-(4-fluoro-3-(trifluoromethyl)phenyl)cyclopropane-1-carboxamido)benzamido)-2,3,4-trifluorophenyl)carbamate]
[1]
  pest or weed control at 50 µg/cm2: 50 to 100%
[2]
  pest or weed control at 50 µg/cm2: 50 to 100%
[3]
  pest or weed control at 200 µg/mL: 0 to 80%
[4]
  YFM: A (80–100)

## CCOC(C)C(=O)Nc1c(F)ccc(NC(=O)c2cc(NC(=O)[C@H]3[C@H](c4cccc(C(F)(F)F)c4)C3(Cl)Cl)ccc2Cl)c1F (stereo partly drawn) [F1737, 2-Chloro-5-((1R,3R)-2,2-dichloro-3-(3-(trifluoromethyl)phenyl)cyclopropane-1-carboxamido)-N-(3-(2-ethoxypropanamido)-2,4-difluorophenyl)benzamide]
[1]
  pest or weed control at 50 µg/cm2: 50 to 100%
[2]
  pest or weed control at 50 µg/cm2: 50 to 100%
[3]
  pest or weed control at 200 µg/mL: 0 to 80%
[4]
  YFM: A (80–100)

## CCCOC(C)C(=O)Nc1c(F)ccc(NC(=O)c2cc(NC(=O)[C@H]3[C@H](c4ccc(F)c(C(F)(F)F)c4)C3(Cl)Cl)ccc2Cl)c1F (stereo partly drawn) [F1739, 2-Chloro-5-((1R,3R)-2,2-dichloro-3-(4-fluoro-3-(trifluoromethyl)phenyl)cyclopropane-1-carboxamido)-N-(2,4-difluoro-3-(2-propoxypropanamido)phenyl)benzamide]
[1]
  pest or weed control at 50 µg/cm2: 50 to 100%
[2]
  pest or weed control at 50 µg/cm2: 50 to 100%
[3]
  pest or weed control at 200 µg/mL: 0 to 80%
[4]
  YFM: A (80–100)

## Nc1cc(NC(=O)c2cc(NC(=O)[C@H]3[C@H](c4ccc(F)c(C(F)(F)F)c4)C3(Cl)Cl)ccc2Cl)c(F)c(F)c1F [F1740, N-(5-Amino-2,3,4-trifluorophenyl)-2-chloro-5-((1R,3R)-2,2-dichloro-3-(4-fluoro-3-(trifluoromethyl)phenyl)cyclopropane-1-carboxamido)benzamide]
[1]
  pest or weed control at 50 µg/cm2: 50 to 100%
[2]
  pest or weed control at 50 µg/cm2: 50 to 100%
[3]
  pest or weed control at 200 µg/mL: 80 to 100%
[4]
  YFM: A (80–100)

Reference: patent US20250228239A1, “MOLECULES HAVING PESTICIDAL UTILITY, AND INTERMEDIATES, COMPOSITIONS, AND PROCESSES, RELATED THERETO” (priority 2024, published 2025)
